US20100324017A1, “ACYLGUANIDINE DERIVATIVE” (priority 2007, published 2010)

How the values were obtained:
human 5-HT5A receptor = target: T1, human 5-HT5A receptor (Homo sapiens, UniProt P47898); assay: Test of human 5-HT5A receptor binding inhibition ([3H]5-CT, HEK293 cell membrane); settings: [3H]5-CT binding, membrane of HEK293 cell expressing human 5-HT5A receptor
T1 construct: expressed in transfected cells; membrane preparation
Method: An ORF of a human 5-HT5A receptor (Genbank AF498985) was cloned from a human hippocampal cDNA library, and then inserted into a pCR2.1 vector (Invitrogen), and Escherichia coli having the plasmid was mass cultured. Next, the human 5-HT5A receptor full-length cDNA sequence was analyzed, recombined into a pCDNA3.1 vector (Invitrogen) as an expression vector, and mass cultured. A human embryonic kidney-induced cell HEK293 cell (ATCC) was seeded, and the resulting expression plasmid (1 μg) above was added thereto together with LIPOFECTAMINE 2000 (Invitrogen; 2 μl), a gene was introduced into the HEK293 cell, and then Geneticin (G418 sulfate 500 μg/ml; Kanto Chemical Co., Inc.) was used as a drug-resistant marker to screen the expressing cell. Thus prepared gene-expressing recombinant cell was cultured in a D-MEM, 10% FCS, 1% Pc./Sm., 500 μg/ml G418 culture medium for 3 days. This experimental operation was conducted in accordance with a gene operation experiment manual of a known method (Sambrook, J. et al, Molecular Cloning-A Laboratory Manual“, Cold Spring Harabor Laboratory, NY, 1989), etc., an instruction appended in a reagent or the like.
(1) Preparation of a Membrane from an HEK293 Cell Forcibly Expressing a Human 5-HT5A Receptor
An HEK293 cell forcibly expressing a human 5-HT5A receptor was cultured in an F500 plate, and scraped for collection using a scraper. After centrifugation, the precipitates were collected and an incubation buffer (50 mM Tris (HCl) PH 7.4, 10 mM Mg504, 0.5 mM EDTA) was added thereto. After homogenization, it was further centrifuged, an incubation buffer was added to the precipitate, and the mixture was well suspended. These operations were repeatedly conducted, the protein concentration was then measured, and the preparation of a membrane was completed.
(2) Experiment on Human 5-HT5A Receptor Binding Inhibition
The compound to be tested (0.3 to 300 nM) and a 100 μM 5-CT solution in DMSO were added to a 96-well plate at 2 μl/well. The number of the wells to be measured under the same condition in one experiment was set at 2, and an average value thereof was used. It was suspended in an incubation buffer, and a HEK293 cell membrane forcibly expressing a human 5-HT5A receptor that had been prepared at 200 μg/ml was added thereto at 100 μl/well. The mixture was incubated at room temperature for 15 minutes, and a [^3H]5-CT solution (2 nM [^3H]5-CT, an incubation buffer) was then added thereto at 100 μl/well.
Separate from this, 100 μl of the solution was dispersed to a liquid scintillation vial, 2 ml of Aquasol II (registered trademark) was added thereto, followed by stirring, and the radioactivity was then measured with a liquid scintillation counter. The solution was incubated at 37° C. for 60 minutes. The reaction liquid was sucked to a 96-well GF/C filter plate that had been preliminarily treated with 0.2% polyethyleneimine, and washed six times with an ice-cooled 50 mM Tris (pH 7.5) buffer. The GF/C filter plate was dried.
MicroscintTMPS (registered trademark) was added thereto at 40 μl/well. The radioactivity remaining on the GF/C filter plate was measured in a top counter.
For the inhibitory activity for the binding of the [^3H]5-CT by the compound to be tested in each experiment, IC50 value was calculated by taking the radioactivity when only DMSO was added as 0% inhibition, and the radioactivity when 1 μM 5-CT was added as 100% inhibition. Apart from this, a Ki value was calculated from the Kd value of the [^3H]5-CT that had been determined by Scatchard analysis.
Ki=IC50 (1+Concentration of the ligands added/Kd (4.95 nM))

[1] = system: water maze learning disorders in old rats; assay: Water maze learning disorders in old rats; assay type: in vivo, rat
Method: Evaluation of a Drug for Water Maze Learning Disorders in Old Rats
The improvement effect of the compound (I) for dementia was evaluated by a known water maze learning disorder model used as a pathophysiology model.
Specifically, it was evaluated in accordance with the method as described in “J Pharmacol Exp Ther, 1996; 279: 1157-73, Yamazaki M. et al.”.

[2] = system: MK-801-induced spontaneous alternation behavior disorder; assay: MK-801-induced spontaneous alternation behavior disorder in mice (Y-maze); assay type: in vivo; settings: mouse, oral, dose 0.003 mg/kg; MK-801 0.15 mg/kg i.p.
Method: An Improvement Effect for Scopolamine-Induced or MK-801-Induced Spontaneous Alternation Behavior in Mice
An improvement effect of the compound (I) for cognitive impairment was evaluated by the above-described well-known test method as a model of a short-term learning disorder.
Species: Male ddY mice/number of animals (number of animals per group): 6 to 10 animals per group
A mouse was introduced into the laboratory 1 hour before starting the test. The mouse was placed at one end of an arm in a Y-maze having equal lengths of arms in three directions, and was able freely explored for 8 minutes with the number of the entries into the arms were counted. Furthermore, a spontaneous alternation behavior was defined as consecutive entries into each of the three arms, and an alternation rate was defined as the percentage of the number of time of this behavior relative to the total number of the entries, and calculated by the following equation.
Alternation rate (%)=(number of spontaneous alternation behaviors/total number of entries−2)×100. […]
The alternation rate (%) is expressed as an average value in each group (mean±SE). […] By carrying out the Dunnett evaluation for the group administered with the compound to be tested relative to the control group, the presence or absence of the learning disorder action of the compound to be tested was determined. […]

T1 sequence (P47898 whole entry): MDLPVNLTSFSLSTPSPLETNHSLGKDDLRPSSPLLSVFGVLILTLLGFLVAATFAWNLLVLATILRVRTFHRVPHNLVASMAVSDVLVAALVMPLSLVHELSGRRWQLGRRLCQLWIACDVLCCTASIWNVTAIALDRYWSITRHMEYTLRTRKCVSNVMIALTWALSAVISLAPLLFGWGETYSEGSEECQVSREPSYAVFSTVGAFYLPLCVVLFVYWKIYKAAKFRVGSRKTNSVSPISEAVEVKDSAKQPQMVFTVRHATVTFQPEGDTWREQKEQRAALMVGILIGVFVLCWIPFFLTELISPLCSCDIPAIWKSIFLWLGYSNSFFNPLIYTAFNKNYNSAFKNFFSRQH

| SMILES | Ki (human 5-HT5A receptor) [nM] | improvement of water maze learning disorders in old rats ([1]; dose 0.01 mg/kg) | improvement of water maze learning disorders in old rats ([1]; dose 0.03 mg/kg) | improvement of MK-801-induced spontaneous alternation behavior disorder [2] |
| --- | --- | --- | --- | --- |
| NC(N)=NC(=O)c1ccc2c3ccccc3n(C3CCOCC3)c2c1 [Example 25] | 0.51 | significantly improved | significantly improved | significantly improved |
| CC(C)n1c2cc(C(=O)N=C(N)N)ccc2c2c(CO)cccc21 [Example 65] | ≤ 50 | – | – | – |
